{"source": "patent US20060183802A1", "about": "“Compositions and methods for treating amyotrophic lateral sclerosis (ALS)” (priority 2004, published 2006)", "key": {"[1]": {"tested_on": "SOD (wild type and A4V, G85R and G37R mutants)", "assay": "Copper/H2O2-induced oxidative aggregation of demetallated SOD after Cys-111 modification, monitored by light scattering", "assay_type": "biochemical, human", "method": "Unmodified SOD aggregation. SOD aggregation of SOD with an umodified Cys-111 residue was achieved by mixing 10 μM SOD with 0.8 mM copper sulfate (CuSO4) and 10 mM hydrogen peroxide (H2O2) in 20 mM Tris at 37° C. (pH 7.4). SOD aggregation of SOD modified at the Cys-111 residue.\nModified (Blocked […] Residue) aggregation. Treatment with iodoacetate and DTNB was carried out at 0.73 mg/ml demetallated SOD, 20 mM Tris, 20 mM phosphate with 10 mM modifying reagent in each at pH 7.4 and room temperature for one hour. In the case of DTNB treatment, both protein solution and the buffer were nitrogen fused prior to the reaction. Modified SOD samples were then dialyzed against 20 mM Tris buffer at pH 7.8 in room temperature. All of the modified SOD samples were prepared fresh just before inducing oxidation with copper (0.8 mM) and hydrogen peroxide (10 mM).\nKinetic Studies of modified and unmodified SOD aggregation. To monitor the kinetics of aggregation, the SOD solution was equilibrated in a quartz cuvette at 37° C. for 5 min within the sample chamber of a Hitachi F-4500 fluorimeter, at which point a freshly made solution containing the CuSO4, H2O2, and Tris was added. Using a small stir bar, the solution was mixed for 5 s, and the light scattered at a 90° angle was immediately monitored for 1 h at an excitation and emission wavelengths of 350 with 2.5 nm slit width. […]"}, "[2]": {"tested_on": "SOD", "assay": "In vitro oxidative aggregation of SOD in presence of orotate", "assay_type": "biochemical, human", "excerpt": "The scope of the current study that led to the discovery of anti-aggregation effect of orotate was based the inventor's aggregation model involving the open dimers (FIG. 9) as discussed in Example 2."}, "[3]": {"conditions": "according to MSDS; cited from earlier work"}, "[4]": {"tested_on": "Cu/Zn superoxide dismutase", "conditions": "rat liver, dietary administration; cited from earlier work"}, "[5]": {"tested_on": "mouse models", "conditions": "dietary administration; cited from earlier work"}, "[6]": {"tested_on": "cardiomyopathic hamsters", "conditions": "dietary administration; cited from earlier work"}}, "data": [{"compound": "O=C(O)c1cc(SSc2ccc([N+](=O)[O-])c(C(=O)O)c2)ccc1[N+](=O)[O-]", "note": "[DTNB, dithionitro benzoic acid]", "values": [{"measurement": "aggregation of SOD after treatment with sulfhydryl blocking reagent", "setting": "[1]; 10 mM modifying reagent, pH 7.4, one hour, then 0.8 mM copper, 10 mM H2O2, WT, A4V, G85R, G37R apo SOD", "result": "inhibited"}]}, {"compound": "O=C(O)CI", "note": "[iodoacetate]", "values": [{"measurement": "aggregation of SOD after treatment with sulfhydryl blocking reagent", "setting": "[1]; pH 7.4", "result": "inhibited"}]}, {"compound": "O=C(O)c1cc(=O)[nH]c(=O)[nH]1", "note": "[orotic acid]", "values": [{"measurement": "anti-aggregation activity across SOD variants", "setting": "[2]; different variants of SOD with different extent of dimer opening", "result": "different level of anti-aggregation activity in different variants of SOD"}, {"measurement": "effect on in vitro oxidative aggregation of SOD", "setting": "[2]; in vitro oxidative aggregation", "result": "inhibition of in vitro oxidative aggregation"}, {"measurement": "solubility in water", "setting": "[3]", "result": 7, "unit": "mM"}, {"measurement": "Cu/Zn superoxide dismutase mRNA level", "setting": "[4]", "result": "reduction"}, {"measurement": "SOD activity", "setting": "[4]", "result": "corresponding reduction"}, {"measurement": "memory and synaptic long-term potentiation", "setting": "[5]", "result": "improve memory and synaptic long-term potentiation"}, {"measurement": "conditions of cardiomyopathic hamsters", "setting": "[6]", "result": "improve"}]}]}
